Measurements as given in US20200268793A1, “METHODS AND COMPOSITIONS FOR ALLEVIATING CYTOKINE RELEASE SYNDROME” (MEMORIAL SLOAN-KETTERING CANCER CENTER, priority 2017, published 2020).
Entries after “also recorded” stand apart in the source; their conditions may differ. Where two headings read alike, the source gives them in different places.

Legend:
[1] = system: SCID-beige mice with established intraperitoneal Raji tumors; experiment: CRS mouse model: survival, weight change, toxicity and histopathology after CAR T cell transfer; format: in vivo; conditions: tumor bearing mice after 1928z CAR T cell transfer; for Toxicity as witnessed by weight loss (percent weight change) under treatment: 5 mg/kg intraperitoneally once per day; for CRS-associated mortality (percent survival) under treatment: agent given intraperitoneally once per day for 5 days
Method: Mice were treated under a protocol approved by the MSKCC Institutional Animal Care and Use Committee. CRS Model: 6-8 week old female C.B.Igh-1b/GbmsTac-Prkdc^scidLyst^bgN7 (SCID-beige) mice (Taconic) were intraperitoneally injected with 3 million Raji-GFP-Fluc cells and tumors were left to grow for 20 days. Tumor burden was evaluated by in vivo bioluminescent imaging two days prior to CAR T cell transfer. Outliers, mice with inconsistently higher or lower tumor burdens were excluded from the experiment. Mice were injected intraperitoneally with 30 million CAR^+ T cells in PBS supplemented with 2% Human Serum. Control mice received PBS supplemented with 2% Human Serum. Stress test model: 6-8 week-old male NOD.Cg-Prkdc^scidIl2rg^tmWjl/SzJ (NSG) mice (Jackson Laboratory) were inoculated with 0.5×10^6 NALM-6-GFP-Fluc cells by tail vein injection followed by with 0.2×10^6 or with 0.5×10^6 CAR T cells four days later. Bioluminescence imaging utilized the Xenogen IVIS Imaging System (Xenogen) with Living Image software (Xenogen) for acquisition of imaging datasets. Tumor Burden was assessed as previously described^34.
(§1) Anakinra was administered intraperitoneally at 30 mg/kg once per day for 5 days, starting 5 hours prior to CAR T cell transfer. Anti-murine IL-6 (clone MP5-20F3, BioXcell) and anti-murine IL-6R (clone 15A7, BioXcell) were administered intraperitoneally once per day at 25 mg/kg for the first dose and 12.5 mg/kg for subsequent doses for 5 days starting 5 hours prior to CAR T cell transfer. L-NIL (Enzo Life Sciences) or 1400W (Cayman Chemical) were administered intraperitoneally at 5 mg/kg once per day for 5 days starting 5 hours prior to CAR T cell transfer.
Mice were transferred to the pathology core facility of Memorial Sloan Kettering where they were sacrificed by cardiac puncture. Tissues obtained were fixed in 10% buffered formalin and were further processed for H&E staining and immunohistochemistry.
To model CAR T cell-induced CRS, conditions were established whereby a high number of CD19 CAR T cells engaged a high tumor burden and yielded overt toxicity within 2-3 days^2-5 (FIG. 1A). […] The overall levels of these cytokines, including mIL6, mCCL2, mG-CSF, hIL-3, hIFN-γ, hGM-CSF, hIL-2 correlated strongly with CRS severity and survival (FIGS. 1E-1L and 1S). The xenogeneic nature of this model was taken advantage of to discern the origin of these cytokines and chemokines. Thus, IL-6 was produced by endogenous murine cells while IFN-γ and GM-CSF were products of the CART cells. mIL6 and hIL6.^12, were not elevated in the absence of CART cells (FIGS. 1M-1O, 1T and 5D), establishing that this cardinal feature of CRS was the result a multicellular interaction and not the outcome of a T cell-tumor cell interaction.

iNOS = iNOS expression in peritoneal macrophages by intracellular flow cytometry in CRS mice; format: in vivo, mouse; conditions: 18 hours post CAR T cell transfer
Method: as §1
Antibodies were titrated for optimal staining. The following fluorophore conjugated antibodies were used (“h” prefix denotes anti-human, “m” prefix denotes anti-mouse): hCD4 BUV395 (clone RPA-T4, BD), hCD8 PE-Cy7 (clone SK1, eBioscience), hCD3 PerCP-efluor710 (clone OKT3, eBioscience), hCD19 BUV737 (clone SJ25C1, BD), hLNGFR BB515 (clone C40-1457, BD), mF4/80 BV421 and BV711 (clone T45-2342, BD), mLy6C Alexa Fluor 647 and BV786 (clone ER-MP20, AbdSerotec and clone HK1.4, BioLegend respectively), mMHCII BB515 (clone 2G9, BD), mCD11c BV650 (clone N418, BioLegend), mLy6G APC-Fire750 (clone 1A8, BioLegend), mSIGLEC-F PE-CF594 (clone E50-2440, BD), mCD40 BV786 (clone 3/23, BD), mCD40L PE (clone MR1, BD), mCD11b BUV395 (clone M1/70, BD), mNOS2 PE-Cy7 (clone CXNFT, eBioscience). […]

cognate murine receptor = conditions: cytokines of human origin, cited from earlier work
cognate human receptor = conditions: cytokines of murine origin; cited from earlier work

CC(=N)NCc1cccc(CN)c1 [1400W]
Toxicity as witnessed by weight loss (percent weight change) under treatment [1]: reversed toxicity | CRS-associated mortality (percent survival) under treatment [1]: significantly prevented mortality

CC(=N)NCCCC[C@H](N)C(=O)O [L-NIL, L-N6-(1-iminoethyl)lysine]
Toxicity as witnessed by weight loss (percent weight change) under treatment [1]: robust reversal of toxicity

Anakinra: IL-1Ra polypeptide used for IL-1 blockade
CRS-associated mortality (percent survival) under treatment [1]: completely abrogated CRS-related mortality | iNOS+ macrophage fraction (iNOS): similarly reduced

GM-CSF: cytokine of human origin
Human on mouse (active on the cognate murine receptor) (cognate murine receptor): lack of activity; also recorded: No^39

IFNg: cytokine of human origin
Human on mouse (active on the cognate murine receptor) (cognate murine receptor): No^38 | Human on mouse (active on the cognate murine receptor) (cognate murine receptor; listed as human IFN-γ): lack of activity

IL-8: cytokine of human origin
Human on mouse (active on the cognate murine receptor) (cognate murine receptor): Yes^40

IL-10: cytokine of human origin
Human on mouse (active on the cognate murine receptor) (cognate murine receptor): Yes^40

IL-13: cytokine of human origin
Human on mouse (active on the cognate murine receptor) (cognate murine receptor): Yes^40

IL-17: cytokine of human origin
Human on mouse (active on the cognate murine receptor) (cognate murine receptor): Yes^40

TNFa
Human on mouse (active on the cognate murine receptor) (cognate murine receptor): Partial^40 | Human on mouse (active on the cognate murine receptor) (cognate murine receptor; listed as Human TNF-α): can signal through the murine p55 TNF receptor but not the p75 TNF receptor

human CD40L: CD40 ligand, mainly expressed by T cells
Human on mouse (active on the cognate murine receptor) (cognate murine receptor): does not functionally interact

B1: IL-6: cytokine of murine origin (protein, UniProt P08505 25-211, looked up)
Interleukin-6: FPTSQVRRGDFTEDTTPNRPVYTTSQVGGLITHVLWEIVEMRKELCNGNSDCMNNDDALAENNLKLPEIQRNDGCYQTGYNQEICLLKISSGLLEYHSYLEYMKNNLKDNKKDKARVLQRDTETLIHIFNQEVKDLHKIVLPTPISNALLTDKLESQKEWLRTKTIQFILKSLEEFLKVTLRSTRQT
Mouse on human (active on the cognate human receptor) (cognate human receptor): No^39

B2: IL-15: cytokine of murine origin (protein, UniProt P48346 49-162, looked up)
Interleukin-15: NWIDVRYDLEKIESLIQSIHIDTTLYTDSDFHPSCKVTAMNCFLLELQVILHEYSNMTLNETVRNVLYLANSTLSSNKNVAESGCKECEELEEKTFTEFLQSFIRIVQMFINTS
Mouse on human (active on the cognate human receptor) (cognate human receptor): Yes^39

B3: IL-5: cytokine of murine origin (protein, UniProt P04401 21-133, looked up)
Interleukin-5: MEIPMSTVVKETLTQLSAHRALLTSNETMRLPVPTHKNHQLCIGEIFQGLDILKNQTVRGGTVEMLFQNLSLIKKYIDRQKEKCGEERRRTRQFLDYLQEFLGVMSTEWAMEG
Mouse on human (active on the cognate human receptor) (cognate human receptor): Yes^40
